Measurements reported in US8129197B2, “Cholesterol loaded insect cell membranes as test proteins” (SOLVO Biotechnológial ZRT., priority 2006, dated 2012).
Like-named read-outs stand apart in the source and are kept apart here. One block for each molecule: values may come before it.

Assays:
[1] = molecular target: T1, ABCG2 (Homo sapiens, UniProt Q9UNQ0); test: Vanadate sensitive ABCG2-ATPase assay in ABCG2-Sf9 (insect cell) membranes
T1 sequence (Q9UNQ0 1-655): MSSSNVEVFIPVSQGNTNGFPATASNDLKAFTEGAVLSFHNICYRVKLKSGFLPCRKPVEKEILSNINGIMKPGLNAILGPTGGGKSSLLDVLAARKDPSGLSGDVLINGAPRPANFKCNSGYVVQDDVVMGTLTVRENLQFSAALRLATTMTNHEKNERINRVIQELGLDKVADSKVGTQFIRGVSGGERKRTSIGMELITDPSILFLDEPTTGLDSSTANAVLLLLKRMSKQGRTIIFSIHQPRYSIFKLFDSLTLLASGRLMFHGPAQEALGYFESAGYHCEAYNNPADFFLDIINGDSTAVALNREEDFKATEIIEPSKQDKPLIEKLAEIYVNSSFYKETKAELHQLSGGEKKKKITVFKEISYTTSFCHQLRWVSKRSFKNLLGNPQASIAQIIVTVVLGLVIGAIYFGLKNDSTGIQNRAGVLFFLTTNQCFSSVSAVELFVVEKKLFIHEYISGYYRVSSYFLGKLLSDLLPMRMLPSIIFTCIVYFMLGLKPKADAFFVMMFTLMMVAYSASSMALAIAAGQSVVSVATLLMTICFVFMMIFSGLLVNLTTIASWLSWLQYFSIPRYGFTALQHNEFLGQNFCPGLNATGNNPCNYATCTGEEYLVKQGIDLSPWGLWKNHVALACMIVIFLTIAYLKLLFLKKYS
Description: (§1) Measurement of transporter activity: The ATPase activity of transporters are measured based on their vanadate sensitivity as known in the literature (see Noe et al. Hepatology, 2001, Vol. 33, No. 5, pp 1223-31; Schmitt et al. J. Neural. Transm., in press; Özvegy C et al. “Functional characterization of the human multidrug transporter, ABCG2, expressed in insect cells” Biochem Biophys Res Commun. 2001 July 6; 285(1):111-7.; Sarkadi, B. et al. (1992) Expression of the human multidrug resistance cDNA in insect cells generates a high activity drug-stimulated membrane ATPase. J Biol Chem 267: 4854-4858.).
(§2) The samples treated with cyclodextrin, or cholesterol@RAMEB complex was compared with untreated vesicles.
(§3) Briefly, as an example, membrane vesicles (20 μg/well) were incubated in ATPase assay buffer (10 mM MgCl2, 40 mM MOPS-Tris (pH 7.0), 50 mM KCl, 5 mM dithiothreitol, 0.1 mM EGTA, 4 mM sodium azide, 1 mM ouabain), 5 mM ATP and various concentrations of test drugs for 40 min at 37° C. ATPase activities were determined as the difference of inorganic phosphate liberation measured with and without the presence of 1.2 mM sodium orthovanadate (vanadate-sensitive ATPase activity).
EC50 is defined according to the International Union of Pharmacology Committee (Neubig, R. R., Spedding, M., Kenakin, T. and Christopoulos, A. (2003) International Union of Pharmacology Committee on Receptor Nomenclature and Drug Classification. XXXVIII. Update on terms and symbols in quantitative pharmacology. Pharmacol Rev 55: 597-606.).
The Michaelis-Menten parameters of maximal velocity (Vmax) and drug affinity (Km) were obtained from plots of the ATPase activity as a function of test drug concentration by nonlinear regression of the following equation:
where v=enzyme activity (nmol Pi/min/mg), Vmax=maximal ATPase activity (nmol Pi/min/mg), Km=Michaelis-Menten constant for the tested substrate (nM) and [S] substrate concentration (nM). The equation 3 was used also for curve fitting on vesicular transport graphs.

[2] = molecular target: T1, ABCG2; test: Vanadate sensitive ABCG2-ATPase assay in ABCG2-M (mammalian cell) membranes
Description: Human membrane vesicle preparations (ABCG2-M) as well as membrane vesicle preparations obtained from insect cells expressing ABCG2, (MXR-Sf9) were obtained from Solvo Biotechnology (Budapest, Hungary). Both membranes are overexpressing the wild type version of ABCG2. The insect membrane vesicle preparations were produced using recombinant baculoviruses encoding ABCG2 (Ozvegy et al., 2002). Sf9 cells were cultured and infected with recombinant baculovirus stocks as described earlier (Sarkadi et al., 1992). Purified membrane vesicles from baculovirus-infected Sf9 cells were prepared essentially as described previously (Sarkadi et al., 1992). Membrane protein content was determined using the BCA method (Pierce Biotechnology, Rockford, Ill., USA).
as §1, §2, §3

[3] = molecular target: T2, wild-type ABCG2 (Homo sapiens, UniProt Q9UNQ0); test: Vesicular transport assay, inside-out ABCG2-Sf9 membrane vesicles
T2 sequence (Q9UNQ0 1-655): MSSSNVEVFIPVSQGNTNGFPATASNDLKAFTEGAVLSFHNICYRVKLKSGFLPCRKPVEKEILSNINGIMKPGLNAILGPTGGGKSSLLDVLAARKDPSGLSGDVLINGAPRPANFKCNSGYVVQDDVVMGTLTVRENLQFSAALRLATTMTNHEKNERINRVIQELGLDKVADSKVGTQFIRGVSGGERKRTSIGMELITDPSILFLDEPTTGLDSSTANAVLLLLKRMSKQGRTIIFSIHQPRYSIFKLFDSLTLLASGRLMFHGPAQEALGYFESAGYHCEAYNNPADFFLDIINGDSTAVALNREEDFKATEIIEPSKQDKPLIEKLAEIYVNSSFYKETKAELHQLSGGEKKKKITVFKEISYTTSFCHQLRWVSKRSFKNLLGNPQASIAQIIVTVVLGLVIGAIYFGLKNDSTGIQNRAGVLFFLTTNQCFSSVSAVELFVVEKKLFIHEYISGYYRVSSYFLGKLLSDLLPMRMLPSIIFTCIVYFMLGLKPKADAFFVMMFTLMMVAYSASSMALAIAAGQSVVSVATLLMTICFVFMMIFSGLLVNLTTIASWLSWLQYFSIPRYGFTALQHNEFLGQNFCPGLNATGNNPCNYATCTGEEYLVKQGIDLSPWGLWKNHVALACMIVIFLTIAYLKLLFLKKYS
Description: Measurement of the vesicular transport activity: The transport activity measurements were carried out with purified membrane vesicles containing ABCG2 or Bsep isolated from baculovirus infected Sf9 (Spodoptera frugiperda) cells or mammalian (ABCG2-M) cells. The membrane preparations contain 5-16% closed, inside-out oriented, membrane vesicles. The transporter pumps the molecules inside of these vesicles. The vesicles can be separated by rapidly filtrating of the membrane suspension through a glass filter or through a nitrocellulose membrane (using vacuum).
The quantitative determination of the transported molecule can be done in several ways, like: HPLC, LC/MS, but also fluorescent or radioactive labeling is also suitable. Tritium labeled substrates were used in the assays and the mode of detection was liquid-scintillation.
Measurement of the vesicular transport activity in case of ABCG2: More closely, as examples, inside-out membrane vesicles were incubated in the presence or absence of 4 mM ATP. […] The transport was stopped by addition of cold wash buffer (40 mM MOPS-Tris (pH 7.0), 70 mM KCl).
The transport was stopped by addition of cold wash buffer (10 mM Tris-HCl, pH 7.4; 250 mM sucrose and 100 mM NaCl).
For estrone-3-sulfate vesicular transport 10 mM Tris-HCl, (pH 7.4), 250 mM sucrose, and 10 mM MgCl2 containing buffer were incubated at 32° C. for 1 min. The transport was stopped by addition of cold wash buffer (10 mM Tris-HCl, pH 7.4; 250 mM sucrose and 100 mM NaCl).
The incubation mix was then rapidly filtered through class B glass fiber filters (pore size, 0.1 μm). Filters were washed with 5×200 μl of ice cold wash buffer and radioactivity retained on the filter was measured by liquid scintillation counting. ATP-dependent transport was calculated by subtracting the values obtained in the absence of ATP from those in the presence of ATP.
Exemplary Assay Design and Main Steps for ABCG2 • Prepare an appropriate concentration of membrane suspension in assay buffer; add the unlabeled and ^3H-labeled substrates to the suspension.

[4] = substrate: CN(Cc1cnc2nc(N)nc(N)c2n1)c1ccc(C(=O)N[C@@H](CCC(=O)O)C(=O)O)cc1; test: cells, lysate or membranes named

Molecule: Nc1ncnc2c1ncn2[C@@H]1O[C@H](COP(=O)(O)OP(=O)(O)OP(=O)(O)O)[C@@H](O)[C@H]1O [ATP]
Km [1]: 2000 µM | Km ([2]; read-out: KM of vanadate sensitive basal ATPase activity with respect to ATP, ABCG2-M membranes): 2200 µM | ATP concentration of maximum MTX transport rate [3]: about 5 mM | Km [3]: 600 to 800 µM

Level of stimulation (vanadate sensitive ATPase activity in %) ([1]; human, 40 min, 50 uM, pH 7): 83 ± 18 (3) %
Molecule: COc1cccc2c1C(=O)c1c(O)c3c(c(O)c1C2=O)C[C@@](O)(C(=O)CO)C[C@@H]3O[C@H]1C[C@H](N)[C@H](O)[C@H](C)O1 [Doxorubicin]

Molecule: C[C@]12CC[C@@H]3c4ccc(O)cc4CC[C@H]3[C@@H]1CC[C@@H]2O[C@@H]1O[C@H](C(=O)O)[C@@H](O)[C@H](O)[C@H]1O [ESG, estradiol 17-beta glucuronide]
apparent Vmax of ESG uptake ([3]; cholesterol-loaded vesicles): 700 pmol ESG/mg membrane protein/min | apparent Vmax of ESG uptake ([3]; control Sf9 membrane vesicles): less than 50 pmol ESG/mg membrane protein/min | Km ([3]; read-out: apparent Km for ESG, cholesterol-loaded vesicles): ~45 µM

Vmax (ABCG2-ATPase) [1]: 35.58 nmol Pi/mg prot./min | Vmax (ABCG2-ATPase) [2]: 38.87 nmol Pi/mg prot./min
Molecule: C[C@]12CC[C@@H]3c4ccc(OS(=O)(=O)O)cc4CC[C@H]3[C@@H]1CCC2=O [Estrone-3-sulfate, estrone 3-sulfate]

Effect on ABCG2-ATPase activity (in words) [1]: weak activator | Level of stimulation (vanadate sensitive ATPase activity in %) ([1]; human, 40 min, 20 uM, pH 7): 71% (3) | Increase of vanadate sensitive ABCG2 ATPase activity in the presence of the substrate ([1]; human, 40 min, pH 7): 5 nmol/Pi/mg prot/min | Vanadate sensitive ABCG2 ATPase activity activated by the substrate ([1]; human, 40 min, pH 7): 58 nmol/Pi/mg prot/min | Effect on ABCG2-ATPase activity (in words) [2]: significantly stimulated | Vanadate sensitive ABCG2 ATPase activity activated by the substrate ([2]; human, 40 min, pH 7): 40 nmol/Pi/mg prot/min
Molecule: O=C(O)c1cc(/N=N/c2ccc(S(=O)(=O)Nc3ccccn3)cc2)ccc1O [Sulfasalazine, sulfasalazine]

Level of stimulation (vanadate sensitive ATPase activity in %) ([1]; human, 40 min, 200 uM, pH 7): 31% | Effect on ABCG2-ATPase activity (in words) ([1]; human, 40 min, pH 7): can not be activated | Effect on ABCG2-ATPase activity (in words) [2]: significantly stimulated
Molecule: CC[C@@]1(O)C(=O)OCc2c1cc1n(c2=O)Cc2cc3c(CN(C)C)c(O)ccc3nc2-1 [Topotecan, topotecan]

Level of stimulation (vanadate sensitive ATPase activity in %) ([1]; human, 40 min, 5 uM, pH 7): 73 ± 19 (3) %
Molecule: COc1cc2ncnc(Nc3ccc(F)c(Cl)c3)c2cc1OCCCN1CCOCC1 [ZD 1839, Gefitinib]

Molecule: O=C1c2c(O)ccc(O)c2C(=O)c2c(NCCNCCO)ccc(NCCNCCO)c21 [mitoxantrone]
Effect on ABCG2-ATPase activity (in words) [1]: did not display any effect

Effect of membrane pretreatment on ABCG2-dependent transport activity (in words) [3]: did not significantly affect
Molecule: Randomly methylated-β-cyclodextrin [CD]

Molecule: rhodamine
Effect on ABCG2-ATPase activity (in words) ([1]; cholesterol loaded Sf9 membranes): did not display any effect

B1: wild-type ABCG2 (Homo sapiens) (protein)
chain: MSSSNVEVFIPVSQGNTNGFPATASNDLKAFTEGAVLSFHNICYRVKLKSGFLPCRKPVEKEILSNINGIMKPGLNAILGPTGGGKSSLLDVLAARKDPSGLSGDVLINGAPRPANFKCNSGYVVQDDVVMGTLTVRENLQFSAALRLATTMTNHEKNERINRVIQELGLDKVADSKVGTQFIRGVSGGERKRTSIGMELITDPSILFLDEPTTGLDSSTANAVLLLLKRMSKQGRTIIFSIHQPRYSIFKLFDSLTLLASGRLMFHGPAQEALGYFESAGYHCEAYNNPADFFLDIINGDSTAVALNREEDFKATEIIEPSKQDKPLIEKLAEIYVNSSFYKETKAELHQLSGGEKKKKITVFKEISYTTSFCHQLRWVSKRSFKNLLGNPQASIAQIIVTVVLGLVIGAIYFGLKNDSTGIQNRAGVLFFLTTNQCFSSVSAVELFVVEKKLFIHEYISGYYRVSSYFLGKLLSDLLPMRMLPSIIFTCIVYFMLGLKPKADAFFVMMFTLMMVAYSASSMALAIAAGQSVVSVATLLMTICFVFMMIFSGLLVNLTTIASWLSWLQYFSIPRYGFTALQHNEFLGQNFCPGLNATGNNPCNYATCTGEEYLVKQGIDLSPWGLWKNHVALACMIVIFLTIAYLKLLFLKKYS
Km ([4]; other: ABCG2-Sf9 membranes): 3900 µM | Km ([4]; other: both untreated and C-CD pretreated vesicles): 500 µM | Km ([4]; other: untreated membranes, ± S.D.): 935 µM

B2: ABCG2 (Homo sapiens) (protein)
chain: MSSSNVEVFIPVSQGNTNGFPATASNDLKAFTEGAVLSFHNICYRVKLKSGFLPCRKPVEKEILSNINGIMKPGLNAILGPTGGGKSSLLDVLAARKDPSGLSGDVLINGAPRPANFKCNSGYVVQDDVVMGTLTVRENLQFSAALRLATTMTNHEKNERINRVIQELGLDKVADSKVGTQFIRGVSGGERKRTSIGMELITDPSILFLDEPTTGLDSSTANAVLLLLKRMSKQGRTIIFSIHQPRYSIFKLFDSLTLLASGRLMFHGPAQEALGYFESAGYHCEAYNNPADFFLDIINGDSTAVALNREEDFKATEIIEPSKQDKPLIEKLAEIYVNSSFYKETKAELHQLSGGEKKKKITVFKEISYTTSFCHQLRWVSKRSFKNLLGNPQASIAQIIVTVVLGLVIGAIYFGLKNDSTGIQNRAGVLFFLTTNQCFSSVSAVELFVVEKKLFIHEYISGYYRVSSYFLGKLLSDLLPMRMLPSIIFTCIVYFMLGLKPKADAFFVMMFTLMMVAYSASSMALAIAAGQSVVSVATLLMTICFVFMMIFSGLLVNLTTIASWLSWLQYFSIPRYGFTALQHNEFLGQNFCPGLNATGNNPCNYATCTGEEYLVKQGIDLSPWGLWKNHVALACMIVIFLTIAYLKLLFLKKYS
Km ([4]; other: ABCG2-M membranes, pH 7.0, 37.0 °C): 3600 µM
